{
  "source": "paper PMC7251018",
  "about": "“Structures of a P4-ATPase lipid flippase in lipid bilayers” (Protein & Cell, 2020)",
  "key": {"ctDnf1p-Cdc50p [1]": {"target": "T1, ctDnf1p-Cdc50p (Thermochaetoides thermophila, UniProt G0S196)", "T1 sequence (G0S196 whole entry)": "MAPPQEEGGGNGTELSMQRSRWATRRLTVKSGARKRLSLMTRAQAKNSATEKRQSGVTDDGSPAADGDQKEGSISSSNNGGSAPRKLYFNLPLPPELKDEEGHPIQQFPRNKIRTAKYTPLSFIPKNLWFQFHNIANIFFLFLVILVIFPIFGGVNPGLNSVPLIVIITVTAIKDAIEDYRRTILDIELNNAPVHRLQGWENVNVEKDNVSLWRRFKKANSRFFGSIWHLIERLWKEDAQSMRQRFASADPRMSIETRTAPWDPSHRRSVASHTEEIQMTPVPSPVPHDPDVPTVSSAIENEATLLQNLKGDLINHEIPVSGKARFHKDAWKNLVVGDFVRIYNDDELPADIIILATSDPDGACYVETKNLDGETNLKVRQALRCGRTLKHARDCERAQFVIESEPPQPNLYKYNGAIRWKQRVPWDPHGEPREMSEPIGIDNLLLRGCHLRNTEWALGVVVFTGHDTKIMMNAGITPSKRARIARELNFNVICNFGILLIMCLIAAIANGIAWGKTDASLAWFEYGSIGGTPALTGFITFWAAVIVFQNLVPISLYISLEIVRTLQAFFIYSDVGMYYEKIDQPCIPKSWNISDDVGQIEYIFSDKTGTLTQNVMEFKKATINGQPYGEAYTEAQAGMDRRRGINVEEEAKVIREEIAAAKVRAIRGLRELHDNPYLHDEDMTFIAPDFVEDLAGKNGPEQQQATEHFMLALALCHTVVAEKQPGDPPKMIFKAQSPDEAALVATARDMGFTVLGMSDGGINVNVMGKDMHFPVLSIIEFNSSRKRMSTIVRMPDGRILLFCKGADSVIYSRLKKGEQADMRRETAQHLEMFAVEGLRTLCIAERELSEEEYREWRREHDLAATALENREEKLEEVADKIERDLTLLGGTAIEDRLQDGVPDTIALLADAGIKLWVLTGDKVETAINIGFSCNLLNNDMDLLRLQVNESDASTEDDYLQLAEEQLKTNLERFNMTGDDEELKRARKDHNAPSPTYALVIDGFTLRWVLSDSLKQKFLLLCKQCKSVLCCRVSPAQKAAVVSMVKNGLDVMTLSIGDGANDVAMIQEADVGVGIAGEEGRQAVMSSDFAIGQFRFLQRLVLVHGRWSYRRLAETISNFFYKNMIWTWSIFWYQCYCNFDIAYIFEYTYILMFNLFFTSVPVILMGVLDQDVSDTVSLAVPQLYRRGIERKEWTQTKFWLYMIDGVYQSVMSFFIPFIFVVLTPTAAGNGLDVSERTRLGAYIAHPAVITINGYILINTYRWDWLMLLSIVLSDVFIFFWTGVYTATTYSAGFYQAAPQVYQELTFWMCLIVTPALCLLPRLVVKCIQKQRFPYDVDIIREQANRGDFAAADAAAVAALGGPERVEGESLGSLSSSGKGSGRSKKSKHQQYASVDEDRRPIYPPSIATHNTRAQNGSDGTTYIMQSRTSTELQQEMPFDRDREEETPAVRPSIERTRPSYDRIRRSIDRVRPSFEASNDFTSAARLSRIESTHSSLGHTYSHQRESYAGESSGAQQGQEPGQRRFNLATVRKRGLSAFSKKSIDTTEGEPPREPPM", "T1 sequence (G0SDN0 whole entry partner)": "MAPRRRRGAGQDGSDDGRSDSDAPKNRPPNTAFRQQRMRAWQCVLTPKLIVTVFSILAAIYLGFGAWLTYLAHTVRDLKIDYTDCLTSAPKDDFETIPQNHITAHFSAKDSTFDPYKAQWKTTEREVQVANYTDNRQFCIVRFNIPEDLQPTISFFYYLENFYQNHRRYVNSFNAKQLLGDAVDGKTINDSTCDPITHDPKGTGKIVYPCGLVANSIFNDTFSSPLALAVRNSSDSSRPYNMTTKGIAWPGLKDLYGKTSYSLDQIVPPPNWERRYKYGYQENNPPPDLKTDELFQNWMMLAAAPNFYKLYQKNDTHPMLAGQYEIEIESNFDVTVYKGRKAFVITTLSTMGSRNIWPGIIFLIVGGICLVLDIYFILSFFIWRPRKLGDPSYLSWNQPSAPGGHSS", "design": "gene DNF1", "conditions": "E2P state; phosphorylation site D606; phosphate analogue"}, "ctDnf1p-Cdc50p [2]": {"target": "T1, ctDnf1p-Cdc50p", "assay": "cryo-EM structure in lipid nanodiscs, […] Å", "design": "gene DNF1; purified heterodimer; reconstituted into lipid nanodiscs (MSP) for cryo-EM; printed residues D606 (phosphorylation site), Q549, N550, S555, S559, E561, N1153, S1158; with Cell division control protein 50 (CDC50 family beta-subunit)", "conditions": "E1-ATP state; nucleotide-binding site, extended conformation"}, "ctDnf1p-Cdc50p [3]": {"target": "T1, ctDnf1p-Cdc50p", "assay": "ATPase activity", "format": "biochemical", "design": "gene DNF1; purified heterodimer; reconstituted into lipid nanodiscs (MSP) for cryo-EM; printed residues D606 (phosphorylation site), Q549, N550, S555, S559, E561, N1153, S1158; with Cell division control protein 50 (CDC50 family beta-subunit)", "conditions": "phospholipid-dependent"}},
  "data": [
    {"compound": "[F][Be-]([F])[F]", "note": "[BeF3^−]", "values": [
      {"measurement": "cryo-EM structure in lipid nanodiscs, 3.4 Å", "setting": "ctDnf1p-Cdc50p [1]", "value": "In the E2P structure, BeF3^− is bound at the phosphorylation site D606"}
    ]},
    {"compound": "Nc1ncnc2c1ncn2[C@@H]1O[C@H](COP(=O)(O)OP(=O)(O)CP(=O)(O)O)[C@@H](O)[C@H]1O", "note": "[AMPPCP]", "values": [
      {"measurement": "cryo-EM structure in lipid nanodiscs, 3.5 Å", "setting": "ctDnf1p-Cdc50p [2]", "value": "In the E1-ATP structure, AMPPCP adapts an extended conformation"}
    ]},
    {"compound": "Nc1ncnc2c1ncn2[C@@H]1O[C@H](COP(=O)(O)OP(=O)(O)OP(=O)(O)O)[C@@H](O)[C@H]1O", "note": "[ATP]", "values": [
      {"measurement": "ATPase activity", "setting": "ctDnf1p-Cdc50p [3]", "value": "The purified ctDnf1p-Cdc50p heterodimer showed phospholipid-dependent ATPase activity"}
    ]}
  ]
}
